Reference: patent US8968771B2, “Articles and methods for applying antimicrobial protection” (Coeus Technology, Inc., priority 2011, dated 2015)

Experiment: Polymerization / stability of the molecule in solution with water
Format: physicochemical
Conditions: industrially-available preparation placed in solution with water
Description: Solutions of industrially-available preparations (e.g. 3-(trihydroxysilyl) propyldimethyloctadecyl ammonium chloride) were placed in solution with water. It was discovered that at higher concentrations (e.g. at or above about 3 to 4 percent weight/volume) the molecules polymerize to an unsatisfactory degree, making a stable solution either impossible or heavier and unsuitable for saturating a wipe-type substrate or spraying onto a surface or substrate. […] These solutions remain stable in impregnated or saturated substrates (e.g. wipes in a liquid-tight containers) or in a bottle or other container for the solution. […] When the substrate is used to wipe, the solution with the solute remains on the wiped surface in a layer. As the solvent is dried, by evaporation or otherwise, the solute remains in a dry physical layer that remains to physically combat microbes.

CCCCCCCCCCCCCCCCCC[N+](C)(C)CCC[Si](O)(O)O.[Cl-] [3-(trihydroxysilyl) propyldimethyloctadecyl ammonium chloride]
Concentration in water at which the molecules polymerize to an unsatisfactory degree: 3 to 4 percent weight/volume
